Reference: ChEMBL document CHEMBL6177921, “Enhancing the antimycobacterial efficacy of pyridine-4-carbohydrazide: linkage to additional antimicrobial agents via oxocarboxylic acids” (RSC Med Chem, 2025)
≈ marks a conversion by molar mass, not a printed value.

Experiments:
Type in all cases: functional
[1] = system: Mycobacterium tuberculosis; test: Antimycobacterial activity against STM/INH/EMB/RIF/OFX/GEN/AMK-resistant Mycobacterium tuberculosis clinical isolate Praha 131 assessed as bacterial growth inhibition incubated for 14 days by two-fold serial dilution method; conditions: Praha 131, 336 h, time 14 day
[2] = system: Mycobacterium tuberculosis; test: Antimycobacterial activity against STM/INH/EMB/RIF resistant Mycobacterium tuberculosis clinical isolate 234/2005 assessed as bacterial growth inhibition incubated for 14 days by two-fold serial dilution method; conditions: 234/2005, 336 h, time 14 day
[3] = system: Mycobacterium tuberculosis; test: Antimycobacterial activity against STM/INH/EMB/RIF resistant Mycobacterium tuberculosis clinical isolate 234/2005 strain assessed as bacterial growth inhibition incubated for 21 days by two-fold serial dilution method; conditions: 234/2005, 504 h, time 21 day
[4] = system: Mycobacterium tuberculosis; test: Antimycobacterial activity against STM/INH/EMB/RIF/OFX/CLO resistant Mycobacterium tuberculosis clinical isolate 8666/2010 strain assessed as bacterial growth inhibition incubated for 14 days by two-fold serial dilution method; conditions: 8666/2010, 336 h, time 14 day
[5] = system: Mycobacterium tuberculosis; test: Antimycobacterial activity against STM/INH/EMB/RIF/OFX/CLO-resistant Mycobacterium tuberculosis clinical isolate Praha 4 assessed as bacterial growth inhibition incubated for 21 days by two-fold serial dilution method; conditions: Praha 4, 504 h, time 21 day
[6] = system: Mycobacterium tuberculosis; test: Antimycobacterial activity against STM/INH/EMB/RIF/OFX resistant Mycobacterium tuberculosis clinical isolate 7357/1998 strain assessed as bacterial growth inhibition incubated for 14 days by two-fold serial dilution method; conditions: 7357/1998, 336 h, time 14 day
[7] = system: Mycobacterium tuberculosis; test: Antimycobacterial activity against STM/INH/EMB/RIF/OFX/CLO resistant Mycobacterium tuberculosis clinical isolate 8666/2010 strain assessed as bacterial growth inhibition incubated for 21 days by two-fold serial dilution method; conditions: 8666/2010, 504 h, time 21 day
[8] = system: Mycobacterium tuberculosis; test: Antimycobacterial activity against TM/INH/EMB/RIF/OFX/GEN/AMK-resistant Mycobacterium tuberculosis clinical isolate Praha 131 assessed as bacterial growth inhibition incubated for 21 days by two-fold serial dilution method; conditions: Praha 131, 504 h, time 21 day
[9] = system: Mycobacterium tuberculosis; test: Antimycobacterial activity against STM/INH/EMB/RIF/OFX resistant Mycobacterium tuberculosis clinical isolate 7357/1998 strain assessed as bacterial growth inhibition incubated for 21 days by two-fold serial dilution method; conditions: 7357/1998, 504 h, time 21 day
[10] = system: Mycobacterium tuberculosis; test: Antimycobacterial activity against STM/INH/EMB/RIF/CLO-resistant Mycobacterium tuberculosis clinical isolate Praha 1 assessed as bacterial growth inhibition incubated for 14 days by two-fold serial dilution method; conditions: Praha 1, 336 h, time 14 day
[11] = system: Mycobacterium tuberculosis; test: Antimycobacterial activity against STM/INH/RIF resistant Mycobacterium tuberculosis clinical isolate 9449/2007 strain assessed as bacterial growth inhibition incubated for 14 days by two-fold serial dilution method; conditions: 9449/2007, 336 h, time 14 day
[12] = system: Mycobacterium tuberculosis; test: Antimycobacterial activity against STM/INH/EMB/RIF/CLO-resistant Mycobacterium tuberculosis clinical isolate Praha 1 assessed as bacterial growth inhibition incubated for 21 days by two-fold serial dilution method; conditions: Praha 1, 504 h, time 21 day
[13] = system: Mycobacterium tuberculosis; test: Antimycobacterial activity against STM/INH/RIF resistant Mycobacterium tuberculosis clinical isolate 9449/2007 strain assessed as bacterial growth inhibition incubated for 21 days by two-fold serial dilution method; conditions: 9449/2007, 504 h, time 21 day
[14] = system: Mycobacterium tuberculosis; test: Antimycobacterial activity against STM/INH/EMB/RIF/OFX/CLO resistant Mycobacterium tuberculosis clinical isolate Praha 4 assessed as bacterial growth inhibition incubated for 14 days by two-fold serial dilution method; conditions: Praha 4, 336 h, time 14 day

Structure (SMILES)	MIC [1]	MIC [2]	MIC [3]	MIC [4]	MIC [5]	MIC [6]	MIC [7]	MIC [8]	MIC [9]	MIC [10]	MIC [11]	MIC [12]	MIC [13]	MIC [14]
C/C(=N\NC(=O)c1ccncc1)C(=O)Nc1ccc(Oc2ccccc2)cc1	16 µM (≈ 5.99 µg/mL)	8 µM (≈ 3 µg/mL)	16 µM (≈ 5.99 µg/mL)	16 µM (≈ 5.99 µg/mL)	16 µM (≈ 5.99 µg/mL)	16 µM (≈ 5.99 µg/mL)	16 µM (≈ 5.99 µg/mL)	16 µM (≈ 5.99 µg/mL)	16 µM (≈ 5.99 µg/mL)	16 µM (≈ 5.99 µg/mL)	16 µM (≈ 5.99 µg/mL)	16 µM (≈ 5.99 µg/mL)	16 µM (≈ 5.99 µg/mL)	16 µM (≈ 5.99 µg/mL)
C/C(=N\NC(=O)c1ccncc1)C(=O)Nc1ccc(Sc2ccc([N+](=O)[O-])cc2)cc1	≥ 250 µM	–	–	≥ 250 µM	–	–	≥ 250 µM	≥ 250 µM	–	–	≥ 250 µM	–	≥ 250 µM	–
C/C(=N\NC(=O)c1ccncc1)C(=O)Nc1ccc(-c2ccccc2)cc1	32 µM (≈ 11.5 µg/mL)	64 µM (≈ 22.9 µg/mL)	125 µM (≈ 44.8 µg/mL)	64 µM (≈ 22.9 µg/mL)	64 µM (≈ 22.9 µg/mL)	64 µM (≈ 22.9 µg/mL)	64 µM (≈ 22.9 µg/mL)	64 µM (≈ 22.9 µg/mL)	125 µM (≈ 44.8 µg/mL)	32 µM (≈ 11.5 µg/mL)	64 µM (≈ 22.9 µg/mL)	64 µM (≈ 22.9 µg/mL)	64 µM (≈ 22.9 µg/mL)	64 µM (≈ 22.9 µg/mL)
CNC(C)[C@@H]1CC[C@@H](N)[C@@H](O[C@H]2[C@H](O)[C@@H](O[C@H]3OC[C@](C)(O)[C@H](NC)[C@H]3O)[C@H](N)C[C@@H]2N)O1.CN[C@@H]1[C@@H](O)[C@@H](O[C@@H]2[C@@H](O)[C@H](O[C@H]3O[C@H](C(C)N)CC[C@H]3N)[C@@H](N)C[C@H]2N)OC[C@]1(C)O.CN[C@@H]1[C@@H](O)[C@@H](O[C@@H]2[C@@H](O)[C@H](O[C@H]3O[C@H](CN)CC[C@H]3N)[C@@H](N)C[C@H]2N)OC[C@]1(C)O (stereo partly drawn)	> 17 µM	0.26 µM	0.26 µM	4 µM	0.5 µM	1 µM	4 µM	> 17 µM	1 µM	1 µM	1 µM	1 µM	1 µM	0.5 µM
CC1COc2c(N3CCN(C)CC3)c(F)cc3c(=O)c(C(=O)O)cn1c23 (stereo not drawn) [OFLOXACIN]	22 µM (≈ 7.95 µg/mL)	0.7 µM (≈ 0.253 µg/mL)	0.7 µM (≈ 0.253 µg/mL)	11 µM (≈ 3.98 µg/mL)	> 22 µM	11 µM (≈ 3.98 µg/mL)	11 µM (≈ 3.98 µg/mL)	> 17 µM	11 µM (≈ 3.98 µg/mL)	1.4 µM (≈ 0.506 µg/mL)	2.8 µM (≈ 1.01 µg/mL)	1.4 µM (≈ 0.506 µg/mL)	2.8 µM (≈ 1.01 µg/mL)	> 22 µM
C/C(=N\NC(=O)c1ccncc1)C(=O)Nc1ccc(S(=O)(=O)Nc2cc(C)on2)cc1	≥ 250 µM	–	–	≥ 250 µM	–	–	≥ 250 µM	≥ 250 µM	–	–	≥ 250 µM	–	≥ 250 µM	–
